Measured values from ChEMBL document CHEMBL6083183, “Discovery and Hit to Lead Optimization of Macrocyclic Peptides as Novel Tropomyosin Receptor Kinase A Antagonists” (J Med Chem, 2024).
pIC50, pKd: −log10 of the molar value. Bridge positions count the residues as written; N and C are the ends. Square brackets hold non-standard residues; d marks the D form. Peptide text beside a SMILES is read from it. NMeF = CN[C@@H](Cc1ccccc1)C(=O)O; Sar = CNCC(=O)O

How the values were obtained:
[1] = Total clearance in Sprague-Dawley rat at 1 umol/kg, iv administered as cassette dose measured upto 6 hrs by LC-MS/MS method; type: ADME, organism-based; conditions: in vivo, dose 1 µmol/kg
[2] = AUC in Sprague-Dawley rat at 1 umol/kg, iv administered as cassette dose measured upto 6 hrs by LC-MS/MS method; type: ADME, organism-based; conditions: in vivo, dose 1 µmol/kg
[3] = biological target: T1, High affinity nerve growth factor receptor (Homo sapiens, UniProt P04629); experiment: Inhibition of human TrkA assessed as beta-galactosidase activity pretreated with NGF followed by […] and measured after 180 mins by pathhunter assay
T1 sequence (P04629 whole entry): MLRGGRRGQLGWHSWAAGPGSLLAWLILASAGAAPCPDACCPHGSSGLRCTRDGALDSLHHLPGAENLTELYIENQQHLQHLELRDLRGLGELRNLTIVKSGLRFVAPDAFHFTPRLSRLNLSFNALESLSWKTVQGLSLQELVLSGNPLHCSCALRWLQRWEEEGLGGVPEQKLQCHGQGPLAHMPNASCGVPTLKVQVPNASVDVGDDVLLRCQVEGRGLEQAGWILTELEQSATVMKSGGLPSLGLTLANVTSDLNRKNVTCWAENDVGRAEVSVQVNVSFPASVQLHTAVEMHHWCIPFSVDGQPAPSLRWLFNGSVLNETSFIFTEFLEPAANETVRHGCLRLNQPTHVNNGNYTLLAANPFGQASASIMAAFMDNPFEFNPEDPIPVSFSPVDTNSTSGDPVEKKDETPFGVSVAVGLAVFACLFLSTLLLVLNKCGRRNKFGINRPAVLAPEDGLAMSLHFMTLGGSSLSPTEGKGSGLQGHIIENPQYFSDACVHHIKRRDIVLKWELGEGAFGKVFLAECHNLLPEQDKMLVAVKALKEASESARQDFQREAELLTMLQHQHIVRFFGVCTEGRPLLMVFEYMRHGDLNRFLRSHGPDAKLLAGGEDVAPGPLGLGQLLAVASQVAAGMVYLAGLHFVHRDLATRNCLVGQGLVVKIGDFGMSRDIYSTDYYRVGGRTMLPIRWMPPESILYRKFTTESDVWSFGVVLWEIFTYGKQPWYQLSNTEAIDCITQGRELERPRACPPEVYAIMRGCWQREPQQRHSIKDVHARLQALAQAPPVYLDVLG

[4] = Stability in human serum assessed as compound degradation incubated for 22 hrs by LC-MS/MS method; type: ADME, cell-free
[5] = Stability in rat serum assessed as half-life incubated for 22 to 24 hrs by LC-MS/MS method; type: ADME, cell-free; conditions: time 22-24 hrs
[6] = Toxicity in rat at 30 mg/kg, iv administered 3 times at every 2 hrs and measured after 6 hrs; type: organism-based; conditions: in vivo
[7] = Stability in human serum assessed as half-life incubated for 22 to 24 hrs by LC-MS/MS method; type: ADME, cell-free; conditions: time 22-24 hrs
[8] = tested on: Rattus norvegicus; experiment: Analgesic activity in rat Brennan's incision pain model assessed as reduction in pain at 10 mg/kg, iv administered 3 times at every 2 hrs and measured after 6 hrs; type: functional, organism-based
[9] = tested on: Rattus norvegicus; experiment: Analgesic activity in iv dosed rat Brennan's incision pain model assessed as reduction in pain administered 3 times at every 2 hrs and measured after 6 hrs; type: functional, organism-based; conditions: dose 3-30 mg/kg
[10] = tested on: Rattus norvegicus; experiment: Analgesic activity in rat Brennan's incision pain model assessed as reduction in pain at 30 mg/kg, iv administered 3 times at every 2 hrs and measured after 6 hrs; type: functional; set-up: scale not given: the % may be the effect or the level left
[11] = Inhibition of Fc-tagged human TrkA extracellular domain to biotinylated human NGF protein-protein interaction preincubated for 1 hr followed by NGF addition and measured after 3 hrs by ELISA
[12] = biological target: T1, High affinity nerve growth factor receptor; experiment: Binding affinity to Fc-tagged human TrkA extracellular domain by SPR method

SMILES | clearance [1] | AUC at 6 h [2] | pIC50 [3] | Stability [4] | half-life [5] | Activity [6] | half-life [7] | Activity [8] | Activity [9] | Activity [10] | pIC50 [11] | pKd [12]
CC(C)C[C@@H]1NC(=O)[C@H](CCCNC(=N)N)NC(=O)CNC(=O)[C@H](Cc2ccccc2)N(C)C(=O)CNC(=O)[C@H](Cc2c[nH]c3ccccc23)NC(=O)[C@H](Cc2ccc(O)cc2)NC(=O)[C@H](CO)NC(=O)[C@H](C(C)C)NC(=O)[C@H](CO)NC(=O)[C@H](CCCCN)NC(=O)[C@H](Cc2ccccc2)NC(=O)CSC[C@@H](C(=O)N(C)CC(N)=O)NC(=O)[C@H](Cc2c[nH]cn2)NC(=O)[C@H](CC(N)=O)NC(=O)[C@H](Cc2ccc(O)cc2)NC(=O)[C@H](Cc2ccc(O)cc2)NC(=O)[C@H](CO)NC1=O ({CH2CO}-FKSVSYWG[NMeF]GRLSYYNHC[Sar]-NH2; thioether N-18) | 66.2 mL/min/kg | 0.305 µM·h | 7.64 | Unstable | 11.3 h |  |  |  |  |  |  | 
CC(C)C[C@@H]1NC(=O)[C@H](C(C)C)NC(=O)CNC(=O)[C@H](Cc2ccccc2)N(C)C(=O)CNC(=O)[C@H](Cc2c[nH]cn2)NC(=O)[C@H](Cc2ccc(O)cc2)NC(=O)[C@H](CCC(=O)O)NC(=O)[C@H](C(C)C)NC(=O)[C@H](CO)NC(=O)[C@H](CO)NC(=O)[C@H](Cc2ccccc2)NC(=O)CSC[C@@H](C(=O)NCC(N)=O)NC(=O)[C@H](Cc2c[nH]cn2)NC(=O)[C@H](CC(=O)O)NC(=O)[C@H](Cc2ccc(O)cc2)NC(=O)[C@H](Cc2c[nH]c3ccccc23)NC(=O)[C@H](C(C)C)NC1=O ({CH2CO}-FSSVEYHG[NMeF]GVLVWYDHCG-NH2; thioether N-18) | 13.9 mL/min/kg | 1.2 µM·h | 7.68 |  | > 72 h | Non-toxic | > 72 h | Active; Activity Comparable To 1 Mg/Kg Morphine | Dose-dependent-effect | 40% |  | 
CC(C)C[C@@H]1NC(=O)[C@H](CC(N)=O)NC(=O)CNC(=O)[C@H](Cc2ccccc2)N(C)C(=O)CNC(=O)[C@H](Cc2c[nH]c3ccccc23)NC(=O)[C@H](Cc2ccc(O)cc2)NC(=O)[C@H](CO)NC(=O)[C@H](C(C)C)NC(=O)[C@H](CO)NC(=O)[C@H](CO)NC(=O)[C@H](Cc2ccccc2)NC(=O)CSC[C@@H](C(=O)NCC(N)=O)NC(=O)[C@H](Cc2c[nH]cn2)NC(=O)[C@H](CO)NC(=O)[C@H](Cc2ccc(O)cc2)NC(=O)[C@H](Cc2c[nH]c3ccccc23)NC(=O)[C@H](C(C)C)NC1=O ({CH2CO}-FSSVSYWG[NMeF]GNLVWYSHCG-NH2; thioether N-18) |  |  | 6.37 |  | 47.8 h |  | 9.3 h |  |  |  | 7.97 | 7.80
